# From the RepoRT retention time repository
# Counter-ions that a name gives are not always drawn.
# Assay: RP, Waters ACQUITY Premier BEH C18, 100 × 2.1 mm, 1.7 µm, 40 °C, 0.3 to 0.4 mL/min, estimated dead time 0.73 min; A: water + 0.1% formic acid; B: acetonitrile + 0.1% formic acid; gradient (min/%B) 0/0.5 0.1/0.5 10/80 10.1/99.5 12/0.5 12.1/0.5 14.5/0.5
# Conditions: stereoisomer not certain
row,LC retention time [min],Structure (SMILES)
1,7.93,C=C1CC2(O)OC3(CC2C(C)C)C(C)CCC13 (centres undefined) [CURCUMOL]
2,7.26,CC(=O)C1CCC2C3CC=C4CC(OS(=O)(=O)O)CCC4(C)C3CCC12C (centres undefined) [PREGNENOLONE SULFATE]
3,5.46,COc1ccc(O)c(C(=O)O)c1 [5-METHOXYSALICYLIC ACID]
4,3.56,Cc1cn(C2CC(O)C(CO)O2)c(=O)[nH]c1=O (centres undefined) [THYMIDINE]
5,6.78,CCCOC(=O)c1ccc(O)cc1 [PROPYLPARABEN]
6,5.17,O=C(O)C1OC(Oc2cc3oc(-c4ccccc4)cc(=O)c3c(O)c2O)C(O)C(O)C1O (centres undefined) [BAICALIN]
7,6.12,COc1ccc(-c2cc(=O)c3c(O)cc(O)cc3o2)cc1O [DIOSMETIN]
8,6.74,CC12CCC(=O)C=C1CCC1C2CCC2(C)C1CCC2(O)C(=O)CO (centres undefined) [CORTEXOLONE]
9,3.39,Nc1nc2c(ncn2C2CC(O)C(CO)O2)c(=O)[nH]1 (centres undefined) [DEOXYGUANOSINE]
10,7.38,COc1cc2c(cc1O)CCC1C2CCC2(C)C(=O)CCC12 (centres undefined) [2-METHOXYESTRONE]
11,1.21,Cn1c(=O)[nH]c2[nH]c(=O)[nH]c2c1=O [1-METHYLURIC ACID]
12,1.34,O=C1CCCC(C(=O)O)N1 (centres undefined) [6-OXOPIPERIDINE-2-CARBOXYLIC ACID]
13,6.26,COc1ccc(C2CC(=O)c3c(O)cc(O)cc3O2)cc1O (centres undefined) [HESPERETIN]
14,9.25,CC(C)=CCCC(C)C1CCC2C3CC=C4CC(O)CCC4(C)C3CCC12C (centres undefined) [DESMOSTEROL]
15,0.941,Nc1ccn(C2OC(COP(=O)(O)O)C(O)C2O)c(=O)n1 (centres undefined) [CYTIDINE MONOPHOSPHATE]
16,6.92,CC(=O)OCC(=O)C1(O)CCC2C3CCC4=CC(=O)CCC4(C)C3C(O)CC21C (centres undefined) [CORTISOL 21-ACETATE]
17,7.17,CC1CCC2(C(=O)O)CCC3(C)C(=CCC4C5(C)CC(O)C(O)C(C)(CO)C5CCC43C)C2C1C (centres undefined) [ASIATIC ACID]
18,4.83,COc1ccc(C2CC(=O)c3c(O)cc(OC4OC(CO)C(O)C(O)C4OC4OC(C)C(O)C(O)C4O)cc3O2)cc1O (centres undefined) [HESPERETIN 7-NEOHESPERIDOSIDE]
19,0.94,"Nc1ccn(C2OC(CO)C3OP(=O)(O)OC32)c(=O)n1 (centres undefined) [CYTIDINE 2',3'-CYCLIC PHOSPHATE]"

row,LC retention time [min],Structure (SMILES)
1,4.35,OCC1OC(Oc2ccc3c(c2)OCC2c4cc5c(cc4OC32)OCO5)C(O)C(O)C1O (centres undefined) [TRIFOLIRHIZIN]
2,6.03,O=C(CCc1ccc(O)cc1)c1c(O)cc(O)cc1O [PHLORETIN]
3,4.62,COc1cc2ccc(=O)oc2cc1O [SCOPOLETIN]
4,5.1,O=C1c2c(O)cccc2C(C2OC(CO)C(O)C(O)C2O)c2cc(CO)cc(O)c21 (centres undefined) [ALOIN]
5,4.47,O=C(OC1Cc2c(O)cc(O)cc2OC1c1ccc(O)c(O)c1)c1cc(O)c(O)c(O)c1 (centres undefined) [(?)-EPICATECHIN GALLATE]
6,4.4,Cc1cc2nc3c(=O)[nH]c(=O)nc-3n(CC(O)C(O)C(O)CO)c2cc1C (centres undefined) [RIBOFLAVIN]
7,1.41,Nc1ccn(C2OC(CO)C(O)C2O)c(=O)n1 (centres undefined) [CYTIDINE]
8,7.26,COc1ccc(-c2cc(=O)c3c(OC)c(OC)c(OC)c(OC)c3o2)cc1 [TANGERETIN]
9,6.06,CC12CCC(=O)C=C1CCC1C2C(O)CC2(C)C1CCC2(O)C(=O)CO (centres undefined) [CORTISOL]
10,5.44,O=C(C=Cc1ccc(O)c(O)c1)OC(Cc1ccc(O)c(O)c1)C(=O)O (centres undefined) [ROSMARINATE]
11,3.45,O=c1[nH]c(=O)c2ncn(C3OC(CO)C(O)C3O)c2[nH]1 (centres undefined) [XANTHOSINE]
12,6.08,"COc1c(O)cc2oc(-c3ccc(O)cc3)cc(=O)c2c1O [5,7-DIHYDROXY-2-(4-HYDROXYPHENYL)-6-METHOXY-4H-CHROMEN-4-ONE]"
13,4.42,"O=C(O)CCc1ccc(O)c(O)c1 [3,4-DIHYDROXYHYDROCINNAMIC ACID]"
14,3.98,COc1cc(C(=O)O)cc(OC)c1O [SYRINGIC ACID]
15,5.34,COc1cc2ccc(=O)oc2cc1OC [SCOPARONE]
16,3.71,Cn1cnc2c1c(=O)[nH]c(=O)n2C [THEOBROMINE]
17,6.99,COc1ccc(-c2cc(=O)c3c(OC)c(OC)c(OC)c(OC)c3o2)cc1OC [NOBILETIN]
18,5.75,CC1C(=O)Nc2ccccc21 (centres undefined) [3-METHYL-2-OXINDOLE]

# The next lines start with the molecule.
row,Structure (SMILES),LC retention time [min]
1,CC(C)(C)C1(O)CC2OC(=O)CC23C(=O)OC2OC(=O)C(O)C231 (centres undefined) [BILOBALIDE],4.91
2,CCCCCCCCCCCCCCCC(O)C(N)CO (centres undefined) [SPHINGANINE],7.51
3,CSCCC(=O)C(=O)O [2-OXO-4-METHYLTHIOBUTANOIC ACID],3.7
4,O=c1[nH]cnc2nc[nH]c12 [HYPOXANTHINE],1.76
5,Nc1nc2c(ncn2C2OC(COP(=O)(O)OP(=O)(O)OC3OC(CO)C(O)C(O)C3O)C(O)C2O)c(=O)[nH]1 (centres undefined) [GUANOSINE DIPHOSPHATE MANNOSE],1.37
6,O=C(O)c1ccccc1O [SALICYLATE],5.97
7,OCCc1ccc(O)c(O)c1 [HYDROXYTYROSOL],3.89
8,O=c1ccc2cc(OC3OC(CO)C(O)C(O)C3O)c(O)cc2o1 (centres undefined) [AESCULIN],3.14
9,NC(Cc1ccc(O)cc1)C(=O)O (centres undefined) [TYROSINE],2.44
10,CS(=O)CCCCN=C=S (centres undefined) [SULFORAPHANE],4.72
11,O=C(O)CCCC(=O)O [GLUTARATE],3.5
12,OCCc1c[nH]c2ccccc12 [INDOLE-3-ETHANOL],5.81
13,NC(=O)CCCCC1CCSS1 (centres undefined) [LIPOAMIDE],5.5
14,"O=C1CC(C(=O)O)NC(=O)N1 (centres undefined) [4,5-DIHYDROOROTIC ACID]",1.12
15,O=C(O)C[C@H](NC(=O)Cc1c[nH]c2ccccc12)C(=O)O [L-N-(1H-INDOL-3-YLACETYL)ASPARTIC ACID],4.39
16,CCCCCCCCC=CCCCCCCCC(=O)OCC(O)CO (centres undefined) [OLEOYL-GLYCEROL],9.52
17,NC(=O)c1ncn(C2OC(CO)C(O)C2O)c1N (centres undefined) [AICA-RIBOSIDE],0.945
18,O=C(O)CNC(=O)C=Cc1ccccc1 [CINNAMOYLGLYCINE],5.02
19,CCCCCCCCCCCC=CCCCCC(=O)O [PETROSELINATE],10
20,O=C(O)CCCCCCCO [8-HYDROXYOCTANOATE],5.04
21,CCCCCCCCCCCC(=O)OC(CC(=O)O)C[N+](C)(C)C.[Cl-] (centres undefined) [ISTD_LAUROYL-CARNITINE-D3],7.14
22,CC(=O)NC(CS)C(=O)O (centres undefined) [N-ACETYLCYSTEINE],4
23,CC(=O)NC(CCC(=O)O)C(=O)O (centres undefined) [N-ACETYLGLUTAMATE],2.2
24,CC(=O)NC1C(O)OC(CO)C(O)C1OC(C)C(=O)O (centres undefined) [N-ACETYLMURAMATE],1.09
25,N#CC(OC1OC(COC2OC(CO)C(O)C(O)C2O)C(O)C(O)C1O)c1ccccc1 (centres undefined) [AMYGDALIN],3.78
26,COC(=O)CCCC(=O)O [MONOMETHYLGLUTARATE],3.95

row,Structure (SMILES),LC retention time [min]
1,O=C(O)CCCCCCCCCCCO [OMEGA-HYDROXYDODECANOATE],6.99
2,CCCCCCCCC=CCCCCCCCC(=O)O [ELAIDATE],10
3,O=C(O)CCC(=O)C(=O)O [OXOGLUTARATE],1.3
4,Nc1ccccc1S(=O)(=O)O [ANILINE-2-SULFONATE],2.54
5,COc1cc(CCN)ccc1O [3-METHOXYTYRAMINE],3.47
6,CC(=O)N1CCCC1C(=O)O (centres undefined) [N-ACETYLPROLINE],3.77
7,O=C(O)C=Cc1cnc[nH]1 [UROCANATE],1.39
8,"O=C(O)CCCCCCCCCCCC(=O)O [1,11-UNDECANEDICARBOXYLATE]",7.11
9,"O=C(O)c1c(O)cccc1O [2,6-DIHYDROXYBENZOIC ACID]",4.5
10,O=C(O)c1ccccc1 [BENZOATE],4.51
11,CCCCCCCCCCCCCCCCCC(=O)NCCO [STEAROYLETHANOLAMIDE],9.74
12,CCCCC(CC)COC(=O)c1ccccc1C(=O)OCC(CC)CCCC (centres undefined) [BIS(2-ETHYLHEXYL)PHTHALATE],10.7
13,Cc1cn(C2CC(O)C(COP(=O)(O)OP(=O)(O)OC3OC(CO)C(O)C(O)C3O)O2)c(=O)[nH]c1=O [DTDP-D-GLUCOSE],1.82
14,NCC(O)c1ccc(O)c(O)c1 (centres undefined) [NORADRENALINE],0.887
15,O=C(O)CNC(=O)Cc1ccccc1 [PHENYLACETYLGLYCINE],4.21
16,Cn1c(=O)c2c(ncn2C)n(C)c1=O [CAFFEINE],4.3
17,O=C(O)/C=C/c1ccccc1 [TRANS-CINNAMATE],6.45
18,O=c1[nH]c(=O)c2[nH]c(=O)[nH]c2[nH]1 [URATE],1.52
19,CC(C)=CCCC(C)=CCC1=C(C)C(=O)c2ccccc2C1=O [MENAQUINONE],10.8
20,NC(=O)c1ccc[n+](C2OC(COP(=O)(O)OP(=O)(O)OCC3OC(n4cnc5c(N)ncnc54)C(O)C3O)C(O)C2O)c1 (stereo not drawn) [BETA-NICOTINAMIDE ADENINE DINUCLEOTIDE],2.13
21,CC1NC(=O)NC1CCCCCC(=O)O (centres undefined) [DETHIOBIOTIN],4.85
22,CCCCCCC(N)C(=O)O (racemic) [DL-2-AMINOOCTANOIC ACID],4.04
23,CC(O)CC(=O)O (centres undefined) [3-HYDROXYBUTANOATE],4.45
24,O=C(O)CCc1ccccc1O [3-(2-HYDROXYPHENYL)PROPANOATE],5.47
25,CC(=O)OC(C)(C)C=CC(=O)C(C)(O)C1C(O)CC2(C)C3CC=C4C(CC(O)C(=O)C4(C)C)C3(C)C(=O)CC12C (centres undefined) [CUCURBITACIN B],7.07
26,NC(=O)[C@@H](N)Cc1c[nH]c2ccccc12 [L-TRYPTOPHANAMIDE],3.9
